Test results reported in PMC9867380, “Ageing Curtails the Diversity and Functionality of Nascent CD8^+ T Cell Responses against SARS-CoV-2” (Vaccines, 2023).
Like-named read-outs stand apart in the source and are kept apart here.

Experiments:
[1] = test system: primed CD8^+ T cells (PBMCs from HLA-A2 donors); format: cell-based, human
[2] = biological target: T1, HLA-A2 (Homo sapiens, UniProt P04439, D140Y/D185E/D98H/E176V/E277Q/G131W/G231S/I119V/I121R/I166T/I218V/L300P/L318F/N151K/N90K/P208A/P217A/Q86G/Q94H/R138H/R169H/T345S); assay: HLA–peptide binding assay (surface stabilization of HLA-A2 on T2 cells); details: differences especially at 10^−5 M and 10^−6 M
T1 construct: T2 cells, a lymphoma-derived line expressing low amounts of HLA-A2; endogenous in cells; host or cells: T2 cells

[3] = old donors (65–69 years, n = 8), peptide 1 μM, day 10 after priming, 24 h ELISpot, positive above 50 SFUs per 10^6 cells

Row | Sequence | IFN-γ responses in old donors [1, 3] | Relative affinity for HLA-A2 (binding hierarchy among the peptides) [2] | IFN-γ responses in old donors [1]
1 | KIADYNYKL [HLA-A2-restricted SARS-CoV-2 spike-derived peptide, residues 417–425] | no responses | – | –
2 | YLQPRTFLL [HLA-A2-restricted SARS-CoV-2 spike-derived peptide, residues 269–277] | – | lowest relative affinities | –
3 | TLDSKTQSL [HLA-A2-restricted SARS-CoV-2 spike-derived peptide, residues 109–117] | no responses | lowest relative affinities | –
4 | HLVDFQVTI [HLA-A2-restricted SARS-CoV-2 peptide from ORF6, residues 3–11] | – | – | limited to a single donor
5 | MLDMYSVML [HLA-A2-restricted SARS-CoV-2 peptide from RdRpol, residues 5291–5299] | limited to a single donor | – | –
6 | LLYDANYFL [HLA-A2-restricted SARS-CoV-2 peptide from ORF3a, residues 139–147] | limited to a single donor | – | –
7 | SLVKPSFYV [HLA-A2-restricted SARS-CoV-2 peptide from protein E, residues 50–58] | limited to a single donor | – | –
